Earlier results as cited in patent publication US20120114757A1, “PARTICLES COMPRISING DROSPIRENONE ENCAPSULATED IN A POLYMER” (BAYER PHARMA AKTIENGESELLSCHAFT, priority 2009, published 2012).

stability under acid conditions (acid conditions): rearranged to an inactive isomer
solubility in water and aqueous buffers (various pH values): sparingly soluble
SMILES: C[C@]12CCC(=O)C=C1[C@@H]1C[C@@H]1[C@H]1[C@@H]3[C@@H]4C[C@@H]4[C@@]4(CCC(=O)O4)[C@@]3(C)CC[C@@H]12 [Drospirenone, 6β,7β;15β,16β-dimethylene-3-oxo-17α-pregn-4-ene-21,17-carbolactone]
